Reference: patent publication US8158636B2, “Compounds and methods for kinase modulation, and indications therefor” (Plexxikon Inc., priority 2008, dated 2012)

Legend:
Type in all cases: biochemical
Fms = Fms (Homo sapiens, UniProt P07333); assay: Kinase activity assay, Fms; settings: Table 1h; read-out: activity toward kinase Fms, IC50
Text: (§1) Assays for the activity of kinases, including, but not limited to, Fms, Kit, B-Raf, B-Raf V600E, c-Raf-1, and TrkA are known in the art, for example as described in US Patent Publication Number US20070032519 and U.S. patent application Ser. No. 11/473,347 (see also, PCT publication WO2007002433), the disclosures of which are hereby incorporated by reference with respect to such assays.

Kit = Kit (Homo sapiens, UniProt P10721); assay: Kinase activity assay, Kit; settings: Table 1j; read-out: activity toward kinase Kit, IC50
Chain of Kit (P10721 26-976): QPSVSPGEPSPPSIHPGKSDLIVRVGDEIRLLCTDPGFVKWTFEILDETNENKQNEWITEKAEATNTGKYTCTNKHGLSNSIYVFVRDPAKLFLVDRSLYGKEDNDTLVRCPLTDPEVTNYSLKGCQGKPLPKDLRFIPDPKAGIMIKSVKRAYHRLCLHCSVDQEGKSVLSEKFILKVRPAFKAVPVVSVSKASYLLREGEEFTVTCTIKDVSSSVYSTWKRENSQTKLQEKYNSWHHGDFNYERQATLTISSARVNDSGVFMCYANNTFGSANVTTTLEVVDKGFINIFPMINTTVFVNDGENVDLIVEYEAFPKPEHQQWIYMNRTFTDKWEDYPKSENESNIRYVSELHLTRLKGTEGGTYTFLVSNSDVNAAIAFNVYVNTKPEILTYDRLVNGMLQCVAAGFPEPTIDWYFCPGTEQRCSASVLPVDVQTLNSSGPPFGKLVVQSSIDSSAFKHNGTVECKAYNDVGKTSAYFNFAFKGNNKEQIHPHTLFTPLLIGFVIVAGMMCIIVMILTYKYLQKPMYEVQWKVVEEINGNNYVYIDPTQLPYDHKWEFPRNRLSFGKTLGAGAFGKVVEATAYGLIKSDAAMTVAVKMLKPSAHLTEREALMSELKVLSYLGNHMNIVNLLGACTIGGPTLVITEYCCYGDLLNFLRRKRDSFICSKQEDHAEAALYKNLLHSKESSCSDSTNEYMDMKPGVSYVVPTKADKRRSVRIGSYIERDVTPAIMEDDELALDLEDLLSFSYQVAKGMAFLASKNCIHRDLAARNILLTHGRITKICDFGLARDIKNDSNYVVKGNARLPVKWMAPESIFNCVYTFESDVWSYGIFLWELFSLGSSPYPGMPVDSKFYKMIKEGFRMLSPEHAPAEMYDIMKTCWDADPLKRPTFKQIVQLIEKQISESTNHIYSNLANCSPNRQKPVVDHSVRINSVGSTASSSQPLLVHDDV
Text: as §1

B-Raf = B-Raf (Homo sapiens, UniProt P15056); assay: Kinase activity assay, B-Raf; settings: Table 1b; read-out: activity toward kinase B-Raf, IC50
Chain of B-Raf (P15056 whole entry): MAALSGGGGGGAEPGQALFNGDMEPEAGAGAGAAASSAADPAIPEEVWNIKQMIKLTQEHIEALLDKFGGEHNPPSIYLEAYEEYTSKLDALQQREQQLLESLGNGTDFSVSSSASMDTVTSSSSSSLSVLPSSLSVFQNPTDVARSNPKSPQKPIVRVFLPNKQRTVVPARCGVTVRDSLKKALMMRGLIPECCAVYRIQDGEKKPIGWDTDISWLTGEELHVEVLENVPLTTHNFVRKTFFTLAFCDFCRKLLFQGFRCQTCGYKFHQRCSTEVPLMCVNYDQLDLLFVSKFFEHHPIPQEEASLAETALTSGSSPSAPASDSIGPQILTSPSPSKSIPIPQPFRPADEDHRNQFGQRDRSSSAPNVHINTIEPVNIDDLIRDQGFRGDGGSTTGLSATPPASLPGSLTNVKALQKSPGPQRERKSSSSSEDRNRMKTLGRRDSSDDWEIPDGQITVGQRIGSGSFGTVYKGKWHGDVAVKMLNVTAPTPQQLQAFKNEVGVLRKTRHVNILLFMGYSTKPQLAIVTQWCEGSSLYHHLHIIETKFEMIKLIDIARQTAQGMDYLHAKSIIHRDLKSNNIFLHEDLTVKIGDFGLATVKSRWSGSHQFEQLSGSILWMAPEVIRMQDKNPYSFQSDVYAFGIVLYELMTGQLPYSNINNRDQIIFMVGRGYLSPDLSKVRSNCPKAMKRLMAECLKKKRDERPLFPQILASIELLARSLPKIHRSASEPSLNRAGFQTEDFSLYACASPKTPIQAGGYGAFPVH
Text: as §1

Kdr = Kdr (Homo sapiens, UniProt P35968); assay: Kinase activity assay, Kdr; settings: Table 1i; read-out: activity toward kinase Kdr, IC50
Chain of Kdr (P35968 20-1356): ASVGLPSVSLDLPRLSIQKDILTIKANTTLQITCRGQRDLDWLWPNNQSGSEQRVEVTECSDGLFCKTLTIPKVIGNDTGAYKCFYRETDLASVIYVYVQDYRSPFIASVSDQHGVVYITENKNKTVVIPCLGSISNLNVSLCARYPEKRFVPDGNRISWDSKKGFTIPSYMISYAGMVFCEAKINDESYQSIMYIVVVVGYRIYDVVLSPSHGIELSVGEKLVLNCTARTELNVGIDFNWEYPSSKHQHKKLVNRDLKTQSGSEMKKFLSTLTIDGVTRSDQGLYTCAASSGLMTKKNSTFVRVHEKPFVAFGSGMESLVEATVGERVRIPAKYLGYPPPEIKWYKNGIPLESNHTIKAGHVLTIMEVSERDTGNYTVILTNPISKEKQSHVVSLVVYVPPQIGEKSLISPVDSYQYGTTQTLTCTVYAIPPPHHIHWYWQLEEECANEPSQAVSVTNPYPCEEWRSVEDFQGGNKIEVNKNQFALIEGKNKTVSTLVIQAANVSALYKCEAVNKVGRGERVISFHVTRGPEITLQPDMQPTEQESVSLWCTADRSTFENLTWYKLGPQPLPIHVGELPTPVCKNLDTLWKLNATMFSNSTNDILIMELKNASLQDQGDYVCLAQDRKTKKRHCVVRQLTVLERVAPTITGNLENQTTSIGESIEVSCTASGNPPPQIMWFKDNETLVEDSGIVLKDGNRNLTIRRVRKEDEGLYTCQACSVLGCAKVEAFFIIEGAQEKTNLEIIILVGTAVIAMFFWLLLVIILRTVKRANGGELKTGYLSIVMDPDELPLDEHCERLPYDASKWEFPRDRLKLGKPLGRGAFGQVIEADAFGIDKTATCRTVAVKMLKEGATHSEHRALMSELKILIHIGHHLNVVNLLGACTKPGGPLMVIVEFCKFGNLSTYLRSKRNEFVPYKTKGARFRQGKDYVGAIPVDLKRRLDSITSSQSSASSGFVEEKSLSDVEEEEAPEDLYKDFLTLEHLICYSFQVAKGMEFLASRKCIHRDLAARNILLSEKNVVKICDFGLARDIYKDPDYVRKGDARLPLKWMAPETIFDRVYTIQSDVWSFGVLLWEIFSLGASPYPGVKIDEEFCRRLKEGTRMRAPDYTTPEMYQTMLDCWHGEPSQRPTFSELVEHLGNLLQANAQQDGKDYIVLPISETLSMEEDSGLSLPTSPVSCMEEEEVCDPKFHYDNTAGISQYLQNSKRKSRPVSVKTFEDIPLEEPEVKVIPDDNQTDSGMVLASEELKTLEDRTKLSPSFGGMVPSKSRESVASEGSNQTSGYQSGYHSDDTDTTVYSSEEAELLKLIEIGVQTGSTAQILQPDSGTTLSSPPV
Text: as §1

C-Raf = C-Raf (Homo sapiens, UniProt P04049); assay: Kinase activity assay, C-Raf; settings: Table 1d; read-out: activity toward kinase C-Raf, IC50
Chain of C-Raf (P04049 whole entry): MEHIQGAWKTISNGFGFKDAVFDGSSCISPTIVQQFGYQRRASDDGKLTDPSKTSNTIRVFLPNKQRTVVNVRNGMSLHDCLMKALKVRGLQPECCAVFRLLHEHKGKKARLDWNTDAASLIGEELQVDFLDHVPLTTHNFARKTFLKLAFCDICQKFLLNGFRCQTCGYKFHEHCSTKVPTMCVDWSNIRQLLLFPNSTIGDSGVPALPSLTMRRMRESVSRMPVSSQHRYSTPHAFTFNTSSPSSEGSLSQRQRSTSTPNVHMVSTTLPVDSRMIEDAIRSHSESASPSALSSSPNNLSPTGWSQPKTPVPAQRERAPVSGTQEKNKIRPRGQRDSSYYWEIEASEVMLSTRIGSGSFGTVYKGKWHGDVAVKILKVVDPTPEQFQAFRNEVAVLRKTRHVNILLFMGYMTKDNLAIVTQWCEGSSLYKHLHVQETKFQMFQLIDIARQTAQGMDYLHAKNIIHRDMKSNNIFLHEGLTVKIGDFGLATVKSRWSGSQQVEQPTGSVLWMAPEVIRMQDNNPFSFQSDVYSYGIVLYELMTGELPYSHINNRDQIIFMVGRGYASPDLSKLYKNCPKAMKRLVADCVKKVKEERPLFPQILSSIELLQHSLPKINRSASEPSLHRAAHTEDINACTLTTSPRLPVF
Text: as §1

TrkA = TrkA (Homo sapiens, UniProt P04629); assay: Kinase activity assay, TrkA; settings: Table 1m; read-out: activity toward kinase TrkA, IC50
Chain of TrkA (P04629 33-796): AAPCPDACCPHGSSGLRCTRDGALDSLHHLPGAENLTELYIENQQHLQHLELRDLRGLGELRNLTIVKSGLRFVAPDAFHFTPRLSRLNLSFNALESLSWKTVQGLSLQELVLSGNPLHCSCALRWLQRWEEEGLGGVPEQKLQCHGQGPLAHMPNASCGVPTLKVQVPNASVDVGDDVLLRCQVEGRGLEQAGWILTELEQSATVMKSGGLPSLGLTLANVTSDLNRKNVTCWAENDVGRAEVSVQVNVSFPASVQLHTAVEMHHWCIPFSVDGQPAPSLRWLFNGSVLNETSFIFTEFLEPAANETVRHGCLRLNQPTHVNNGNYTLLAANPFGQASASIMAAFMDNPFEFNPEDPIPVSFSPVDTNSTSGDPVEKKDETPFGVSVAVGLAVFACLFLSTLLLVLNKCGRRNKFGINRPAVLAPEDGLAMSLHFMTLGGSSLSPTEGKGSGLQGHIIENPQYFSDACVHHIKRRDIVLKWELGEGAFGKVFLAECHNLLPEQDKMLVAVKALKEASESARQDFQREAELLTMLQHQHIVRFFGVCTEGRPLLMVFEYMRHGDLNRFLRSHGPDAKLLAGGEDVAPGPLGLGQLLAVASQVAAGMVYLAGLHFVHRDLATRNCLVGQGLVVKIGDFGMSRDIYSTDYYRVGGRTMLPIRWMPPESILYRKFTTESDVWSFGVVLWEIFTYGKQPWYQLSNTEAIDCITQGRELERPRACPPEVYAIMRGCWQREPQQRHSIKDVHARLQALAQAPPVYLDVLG
Text: as §1

B-Raf V600E = B-Raf V600E (Homo sapiens, UniProt P15056, V600E); assay: Kinase activity assay, B-Raf V600E; settings: Table 1c; read-out: activity toward kinase B-Raf V600E, IC50
Chain of B-Raf V600E (P15056 whole entry V600E): as the sequence (P15056 whole entry) above, with V600E counted along it
Text: as §1

Src = Src (Homo sapiens, UniProt P12931); assay: Kinase activity assay, Src; settings: Table 1k; read-out: activity toward kinase Src, IC50
Chain of Src (P12931 whole entry): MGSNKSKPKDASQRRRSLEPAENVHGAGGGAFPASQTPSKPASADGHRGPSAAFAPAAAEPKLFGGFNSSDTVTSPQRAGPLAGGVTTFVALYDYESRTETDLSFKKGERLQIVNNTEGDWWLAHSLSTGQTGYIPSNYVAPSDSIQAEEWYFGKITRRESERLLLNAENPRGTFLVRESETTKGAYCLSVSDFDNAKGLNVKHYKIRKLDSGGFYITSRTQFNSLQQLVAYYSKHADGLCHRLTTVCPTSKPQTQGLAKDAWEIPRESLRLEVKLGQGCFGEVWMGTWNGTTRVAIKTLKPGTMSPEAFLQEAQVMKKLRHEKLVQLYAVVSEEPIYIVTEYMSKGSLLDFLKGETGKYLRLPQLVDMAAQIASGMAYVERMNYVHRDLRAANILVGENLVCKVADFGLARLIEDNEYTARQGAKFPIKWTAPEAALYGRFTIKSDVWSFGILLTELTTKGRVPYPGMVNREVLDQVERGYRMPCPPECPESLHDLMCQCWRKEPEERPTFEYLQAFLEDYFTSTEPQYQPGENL
Text: as §1

| IC50 (Fms) [µM] | IC50 (Kit) [µM] | IC50 (B-Raf) [µM] | IC50 (Kdr) [µM] | IC50 (C-Raf) [µM] | IC50 (TrkA) [µM] | IC50 (B-Raf V600E) [µM] | IC50 (Src) [µM] | Structure (SMILES) |
| --- | --- | --- | --- | --- | --- | --- | --- | --- |
| ≤ 10 | ≤ 10 | ≤ 10 | ≤ 10 | – | – | – | – | COc1ccc(CNc2ccc(Cc3c[nH]c4ncncc34)c(F)n2)c(OC)n1 [P-0043, (2,6-Dimethoxy-pyridin-3-ylmethyl)-[6-fluoro-5-(7H-pyrrolo[2,3-d]pyrimidin-5-ylmethyl)-pyridin-2-yl]-amine] |
| ≤ 10 | – | ≤ 10 | – | ≤ 10 | ≤ 10 | ≤ 10 | – | CS(=O)(=O)c1ccc(F)cc1CNc1ccc(Cc2c[nH]c3ncncc23)c(F)n1 [P-0052, (5-Fluoro-2-methanesulfonyl-benzyl)-[6-fluoro-5-(7H-pyrrolo[2,3-d]pyrimidin-5-ylmethyl)-pyridin-2-yl]-amine] |
| ≤ 10 | ≤ 10 | ≤ 10 | ≤ 10 | ≤ 10 | ≤ 10 | ≤ 10 | – | Fc1nc(NCc2cccnc2OC2CCCC2)ccc1Cc1c[nH]c2ncncc12 [P-0070, (2-Cyclopentyloxy-pyridin-3-ylmethyl)-[6-fluoro-5-(7H-pyrrolo[2,3-d]pyrimidin-5-ylmethyl)-pyridin-2-yl]-amine] |
| ≤ 10 | – | – | ≤ 10 | – | – | – | ≤ 10 | CC(C)c1ncc(CNc2ccc(Cc3c[nH]c4ncncc34)c(F)n2)cn1 [P-0079, [6-Fluoro-5-(7H-pyrrolo[2,3-d]pyrimidin-5-ylmethyl)-pyridin-2-yl]-(2-isopropyl-pyrimidin-5-ylmethyl)-amine] |
| ≤ 10 | ≤ 10 | ≤ 10 | ≤ 10 | ≤ 10 | – | ≤ 10 | – | c1cnc(OC2CCCC2)c(CNc2ncc(Cc3c[nH]c4ncncc34)cn2)c1 [P-0086, (2-Cyclopentyloxy-pyridin-3-ylmethyl)-[5-(7H-pyrrolo[2,3-d]pyrimidin-5-ylmethyl)-pyrimidin-2-yl]-amine] |
| ≤ 10 | ≤ 10 | – | ≤ 10 | – | – | ≤ 10 | ≤ 10 | Fc1nc(NCc2ccc(N3CCCC3)cn2)ccc1Cc1c[nH]c2ncncc12 [P-0089, [6-Fluoro-5-(7H-pyrrolo[2,3-d]pyrimidin-5-ylmethyl)-pyridin-2-yl]-(5-pyrrolidin-1-yl-pyridin-2-ylmethyl)-amine] |
| ≤ 10 | ≤ 10 | ≤ 10 | ≤ 10 | ≤ 10 | – | – | – | COc1cc(Cc2c[nH]c3ncnc(OC)c23)cnc1NCc1ccc(C(F)(F)F)nc1 [P-0096, [3-Methoxy-5-(4-methoxy-7H-pyrrolo[2,3-d]pyrimidin-5-ylmethyl)-pyridin-2-yl]-(6-trifluoromethyl-pyridin-3-ylmethyl)-amine] |
| ≤ 10 | ≤ 10 | ≤ 10 | ≤ 10 | ≤ 10 | ≤ 10 | ≤ 10 | – | COc1ncnc2[nH]cc(Cc3ccc(NCc4ccc(C(F)(F)F)nc4)nc3)c12 [P-0100, [5-(4-Methoxy-7H-pyrrolo[2,3-d]pyrimidin-5-ylmethyl)-pyridin-2-yl]-(6-trifluoromethyl-pyridin-3-ylmethyl)-amine] |
| ≤ 10 | ≤ 10 | ≤ 10 | ≤ 10 | ≤ 10 | ≤ 10 | ≤ 10 | – | COc1ncnc2[nH]cc(Cc3cnc(NCc4ccc(C(F)(F)F)nc4)nc3)c12 [P-0102, [5-(4-Methoxy-7H-pyrrolo[2,3-d]pyrimidin-5-ylmethyl)-pyrimidin-2-yl]-(6-trifluoromethyl-pyridin-3-ylmethyl)-amine] |
| ≤ 10 | ≤ 10 | ≤ 10 | ≤ 10 | ≤ 10 | ≤ 10 | ≤ 10 | – | COc1ncnc2[nH]cc(Cc3cnc(NCc4ccc(C(F)(F)F)nc4)c(F)c3)c12 [P-0103, [3-Fluoro-5-(4-methoxy-7H-pyrrolo[2,3-d]pyrimidin-5-ylmethyl)-pyridin-2-yl]-(6-trifluoromethyl-pyridin-3-ylmethyl)-amine] |
